# Source: patent US10391101B2, “Derivatives of 7-fluoro-8-chloro-5H-dibenzo [B,E,] [1,4] diazepine and use thereof” (VALENTEK LLC, priority 2014, dated 2019)
# Tests used:
# [1] = Leucht et al., Lancet 2013; cited from earlier work
# H1 receptor = H1 receptor (Homo sapiens, UniProt P35367); experiment: H1 histamine receptor functional experiment, antagonism set-up (Fluo-4 NW Ca2+ fluorescence); format: cell-based
# Method: (§1) The functional activity of compounds on the H4 receptor was determined according to the change in the cell conductibility induced by redistribution of intracellular calcium. The activity for H1 receptor was determined according to the fluorescence of Fluo-4 NW indicator introduced into cells induced by the change in Ca2+ ion concentration in the cytosol.
# (§2) Functional experiments were performed in the set-up of agonism and antagonism. In the set-up of agonism the test substance was added directly to the cells expressing the receptor and was determined as the dependence of the response intensity on the substance concentration. Concentration at which the half-peak response (EC50) could be reached served as a measure of activity of agonists.
# (§3) In the set-up of antagonism, the ability of test substances to block the action of agonists was assessed. For this purpose, cells were incubated with the test substances, then the reference agonists were added in the system and the functional response was determined.
# H4 receptor = H4 receptor (Homo sapiens, UniProt Q9H3N8); experiment: H4 histamine receptor functional experiment, agonism set-up (cell conductibility); format: cell-based
# Method: as §1, §2, §3
# D2 dopamine receptors = D2 dopamine receptors (Homo sapiens, UniProt P14416); experiment: cell-based; conditions: determined by IC50 values in the set-up of antagonism
# Method: (§4) The response on cells expressing D2 receptors was determined according to the change in the cell conductibility induced by redistribution of intracellular calcium. For D4 receptor the level of second messenger—cAMP was taken as the criterion.
# D4 dopamine receptors = target: T1, D4 dopamine receptors (Homo sapiens, UniProt P21917); experiment: D4 dopamine receptor antagonism, Kb from IC50 (cAMP level); format: cell-based; conditions: for Kb: determined by IC50 values in the set-up of antagonism; for Therapeutic window (Kb, D2/Kb, D4): ratio of the applicant's Kb values
# T1 sequence (P21917 1-419): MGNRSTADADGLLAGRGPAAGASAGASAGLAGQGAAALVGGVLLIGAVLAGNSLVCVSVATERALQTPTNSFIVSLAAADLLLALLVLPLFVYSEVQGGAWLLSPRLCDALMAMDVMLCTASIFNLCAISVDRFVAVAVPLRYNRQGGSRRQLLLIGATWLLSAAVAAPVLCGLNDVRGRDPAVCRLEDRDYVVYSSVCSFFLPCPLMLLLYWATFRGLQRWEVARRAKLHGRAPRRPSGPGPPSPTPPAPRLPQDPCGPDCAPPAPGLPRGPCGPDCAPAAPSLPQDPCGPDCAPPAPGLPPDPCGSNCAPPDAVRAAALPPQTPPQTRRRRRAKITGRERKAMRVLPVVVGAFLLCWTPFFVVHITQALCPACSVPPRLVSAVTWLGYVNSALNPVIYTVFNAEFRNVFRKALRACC
# Method: as §4
# [2] = Sub-chronic toxicity, morphological parameters of blood (neutrophil kinetics); format: in vivo; conditions: rats, intragastric 5 mg/kg daily for 28 days
# From the text: The positive effect of the introduction of fluorine has been observed in pre-clinical studies of sub-chronic toxicity. […]. Increase in the number of neutrophils has been observed among rats after administration of aminoglutethimide, which also involves a high risk of agranulocytosis (Ng, W. et. al., Chem Res Toxicol, 2013, 26, 1272-81). Thus changes in the kinetics of neutrophils after intake of the medication can serve as a biomarker to predict the risk of agranulocytosis.
# The neutrophil kinetics has been studied within comparative tests of sub-chronic toxicity. Studies have been conducted using rats upon intragastric administration of the substance at a dose of 5 mg/kg. The test substances were administered daily for 28 days. Each experimental group was composed of 10 animals of each sex.
# [3] = 5-oxytriptophan hyperkinesia (head twitches); format: in vivo; conditions: mice, intragastric 1.0-10.0 mg/kg, 5-oxytriptophan 300 mg/kg i.p.
# Method: It is known that the precursor of serotonin (5-oxytriptophan, 5-OT) causes a specific hyperkinesia in mice in the form of head-twitching with average duration of 30-60 minutes, which is explained by the activation of serotonergic system of the CNS. […] Each experimental group included 10 male mice weighing 20-22 g. The test substances were administered intragastrically at 1.0, 2.5, 5.0 and 10.0 mg/kg 30 minutes before the intraperitoneal administration of 5-oxytriptophan at a dose of 300 mg/kg. We counted the number of head twitches per 1 minute at intervals of 10 minutes during 60 minutes.
# [4] = cited from earlier work
# [5] = Sedation study, total distance traveled; conditions: CF-1 mice
# M4 muscarinic receptor = target: T2, M4 muscarinic receptor (Homo sapiens, UniProt P08173); experiment: cell-based
# T2 sequence (P08173 1-479): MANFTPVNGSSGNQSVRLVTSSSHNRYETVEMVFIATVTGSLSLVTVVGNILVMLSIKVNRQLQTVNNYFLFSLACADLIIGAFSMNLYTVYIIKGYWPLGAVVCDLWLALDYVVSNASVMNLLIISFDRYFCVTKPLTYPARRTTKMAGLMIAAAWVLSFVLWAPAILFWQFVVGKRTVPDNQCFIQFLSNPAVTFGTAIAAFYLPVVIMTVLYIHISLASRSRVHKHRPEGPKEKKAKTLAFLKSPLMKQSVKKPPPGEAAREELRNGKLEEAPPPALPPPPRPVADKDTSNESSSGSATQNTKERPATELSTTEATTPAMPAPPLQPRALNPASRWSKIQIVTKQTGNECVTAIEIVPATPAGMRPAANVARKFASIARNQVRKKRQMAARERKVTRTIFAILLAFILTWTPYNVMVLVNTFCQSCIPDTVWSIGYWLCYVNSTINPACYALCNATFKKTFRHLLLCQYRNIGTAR
# Method: as §2, §3
# The curves of dependence of functional response on the concentration of compounds for the receptor were made; the level of second messenger—cAMP determined according to the fluorescence after the lysis of cell expressing the receptor was taken as a criterion.
# M1 receptors = target: T3, M1 receptors (Homo sapiens, UniProt P11229); experiment: M1 receptor activation functional study (Fluo-4 NW Ca2+ fluorescence); format: cell-based; conditions: concentration-response curves, FIG. 2
# T3 sequence (P11229 1-460): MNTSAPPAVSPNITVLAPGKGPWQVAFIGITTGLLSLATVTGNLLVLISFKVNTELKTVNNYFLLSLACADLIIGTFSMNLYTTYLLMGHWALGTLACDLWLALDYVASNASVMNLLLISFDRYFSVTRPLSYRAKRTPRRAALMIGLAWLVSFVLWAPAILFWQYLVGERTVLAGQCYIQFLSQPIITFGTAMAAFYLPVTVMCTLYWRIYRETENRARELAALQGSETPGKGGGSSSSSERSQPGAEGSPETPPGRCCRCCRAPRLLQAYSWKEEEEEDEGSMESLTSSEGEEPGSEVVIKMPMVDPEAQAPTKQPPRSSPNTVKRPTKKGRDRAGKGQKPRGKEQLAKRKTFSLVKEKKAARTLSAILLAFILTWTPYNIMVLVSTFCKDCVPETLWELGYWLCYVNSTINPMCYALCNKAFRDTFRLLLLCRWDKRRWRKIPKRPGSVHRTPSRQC
# Method: The activity was determined according to the fluorescence of Fluo-4 NW indicator introduced into cells induced by the change in Ca2+ ion concentration in the cytosol.
# [6] = test system: family of adrenergic receptors; experiment: Panel of G-protein-coupled receptors, adrenergic receptors; conditions: GPCR panel
# From the text: In conjunction with the results of preliminary toxicological studies, the data indicates a reduction in the risk of autonomic dysfunctions, such as tachysystole, orthostatism, accommodation disorder, dysfunction of gastrointestinal tract and urination, weight gain, lack of coordination of muscle movements.
# [7] = Metabolism and distribution of fluoroclozapine in tissues; conditions: rats, single oral fluoroclozapine 10 mg/kg
# Chain of H4 receptor (Q9H3N8 whole entry): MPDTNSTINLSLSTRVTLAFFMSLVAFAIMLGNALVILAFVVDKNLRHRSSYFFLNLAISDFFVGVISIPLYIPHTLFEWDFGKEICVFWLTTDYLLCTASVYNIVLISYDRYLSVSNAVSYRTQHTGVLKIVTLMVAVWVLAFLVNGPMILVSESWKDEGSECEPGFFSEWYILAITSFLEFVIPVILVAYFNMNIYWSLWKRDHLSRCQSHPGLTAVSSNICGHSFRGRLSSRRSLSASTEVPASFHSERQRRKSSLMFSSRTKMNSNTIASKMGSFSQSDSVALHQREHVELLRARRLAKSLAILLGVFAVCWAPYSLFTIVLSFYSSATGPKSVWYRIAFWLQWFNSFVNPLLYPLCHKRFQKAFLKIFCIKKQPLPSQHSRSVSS
# Chain of D2 dopamine receptors (P14416 whole entry): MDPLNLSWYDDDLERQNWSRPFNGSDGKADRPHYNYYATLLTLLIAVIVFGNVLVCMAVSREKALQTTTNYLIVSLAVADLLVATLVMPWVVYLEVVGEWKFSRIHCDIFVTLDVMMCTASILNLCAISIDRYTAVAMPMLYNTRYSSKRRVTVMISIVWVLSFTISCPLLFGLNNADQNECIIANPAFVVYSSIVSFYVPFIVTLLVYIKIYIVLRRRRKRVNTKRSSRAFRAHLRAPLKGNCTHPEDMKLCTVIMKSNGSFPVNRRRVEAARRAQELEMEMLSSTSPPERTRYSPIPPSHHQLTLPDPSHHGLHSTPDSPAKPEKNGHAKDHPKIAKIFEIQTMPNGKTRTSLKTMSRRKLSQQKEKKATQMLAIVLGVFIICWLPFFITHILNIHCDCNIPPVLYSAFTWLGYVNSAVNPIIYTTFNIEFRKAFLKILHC
# Chain of H1 receptor (P35367 whole entry): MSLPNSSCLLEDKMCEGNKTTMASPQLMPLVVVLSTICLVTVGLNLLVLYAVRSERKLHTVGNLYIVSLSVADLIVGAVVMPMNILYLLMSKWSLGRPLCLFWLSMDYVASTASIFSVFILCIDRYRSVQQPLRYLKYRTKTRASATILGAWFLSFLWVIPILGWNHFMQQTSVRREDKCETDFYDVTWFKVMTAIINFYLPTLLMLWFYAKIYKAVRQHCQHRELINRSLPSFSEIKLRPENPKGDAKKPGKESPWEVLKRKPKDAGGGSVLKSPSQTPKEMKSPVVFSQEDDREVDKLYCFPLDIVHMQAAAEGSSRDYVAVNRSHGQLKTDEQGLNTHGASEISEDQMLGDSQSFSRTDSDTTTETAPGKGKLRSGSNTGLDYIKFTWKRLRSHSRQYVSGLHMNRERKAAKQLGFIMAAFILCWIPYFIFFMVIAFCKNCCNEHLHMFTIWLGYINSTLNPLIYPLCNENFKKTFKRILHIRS
Compound,Increase in the risk of sedation [1],IC50 (H1 receptor),EC50 (H4 receptor),Kb (D2 dopamine receptors),Kb (D4 dopamine receptors),"Therapeutic window (Kb, D2/Kb, D4) (D4 dopamine receptors)",Basophils [2],ESR [2],Eosinophils [2],Hemoglobin [2],Ht [2],Lymphocytes [2],MCH [2],MCHC [2],MCV [2],Metamyelocytes [2],Monocytes [2],Myelocytes [2],Number of circulating neutrophils in peripheral blood versus control group [2],PLT count [2],other results
"OCCOCCN1CCN(C2=Nc3ccccc3Sc3ccccc32)CC1 [Quetiapine, quetiapine]",3.7 times,–,–,–,–,–,–,–,–,–,–,–,–,–,–,–,–,–,–,–,–
"Clc1ccc2c(c1)N=C(N1CCNCC1)c1ccccc1N2 [Desmethylclozapine, N-desmethylclozapine, reference compound]",–,15 nM,2100 nM,52 nM,190 nM,0.27,–,–,–,–,–,–,–,–,–,–,–,–,–,–,–
"CN1CCN(C2=Nc3cc(Cl)ccc3Nc3ccccc32)CC1 [Clozapine, reference compound]",8.8 times,–,–,–,–,–,0.6 ± 0.3%,3.8 ± 0.4 mm/h,1.0 ± 0.5%,154.6 ± 1.9 g/L,43.3 ± 0.5%,66.6 ± 2.8%,18.4 ± 0.1 pg,357.4 ± 1.9 g/L,51.6 ± 0.2 fL,0.0 ± 0.0%,6.4 ± 0.9%,0.0 ± 0.0%,significant increase in the number of circulating neutrophils,617.6 ± 43.2 10^9/l,"Plasma cells [2]: 0.0 ± 0.0%; RBC count [2]: 8.39 ± 0.06 10^12/l; Rt [2]: 80.8 ± 4.1 10^9/l; Segmented neutrophils [2]: 21.2 ± 2.0%; Stab neutrophiles [2]: 4.6 ± 0.7 %; WBC count [2]: 11.6 ± 1.1 10^9/l; Inhibition of twitches induced by 5-OT [3]: most evident inhibition of twitches; Patients resistant to typical neuroleptics in whom positive symptoms are weakened ([4]; human, in vivo): 30-60%; Patients with treatment-resistant schizophrenia whose condition improves ([4]; long-term use): 60%; Sedation: total distance traveled by animals ([5]; oral 1, 5 and 10 mg/kg): significantly reduced"
"Fc1cc2c(cc1Cl)N=C(N1CCNCC1)c1ccccc1N2 [Desmethylfluoroclozapine, 11-(piperazine-1-yl)-7-fluoro-8-chloro-5H-dibenzo[b,e][1,4]diazepine]",–,61 nM,2000 nM,550 nM,350 nM,1.6,0.6 ± 0.3%,4.2 ± 0.4 mm/h,1.0 ± 0.5%,153.4 ± 2.4 g/L,42.5 ± 0.5%,66.6 ± 2.8%,18.4 ± 0.1 pg,360.8 ± 2.2 g/L,50.9 ± 0.2 fL,0.0 ± 0.0%,6.2 ± 1.0%,0.0 ± 0.0%,did not differ so much different from that of the control group,653.4 ± 29.8 10^9/l,"Plasma cells [2]: 0.0 ± 0.0%; RBC count [2]: 8.35 ± 0.07 10^12/l; Rt [2]: 75.6 ± 3.1 10^9/l; Segmented neutrophils [2]: 21.4 ± 1.7%; Stab neutrophiles [2]: 4.2 ± 0.4%; WBC count [2]: 11.7 ± 0.9 10^9/l; Activating concentration relative to that of norclozapine (M4 muscarinic receptor; M4, agonism): 30 times; EC50 (M4 muscarinic receptor; M4, agonism set-up): 3200 nM; IC50 (M4 muscarinic receptor; M4, antagonism set-up): > 10000 nM; Functional response on M1 receptor (agonism) (M1 receptors): is an agonist and causes a significant response in the therapeutic concentration range; Activity in relation to adrenergic receptors [6]: relatively weak activity; Sedation: decrease in motor activity ([5]; oral, dose of 10 mg/kg): negligible decrease in motor activity; Concentrations of parent and metabolite in the brain [7]: consistent"
